≈ marks a conversion by molar mass, not a printed value.

The source of these data is ChEMBL document CHEMBL5233261, “Recent accomplishments on the synthetic/biological facets of pharmacologically active 1H-1,2,3-triazoles” (Eur J Med Chem, 2021).

Experiment [1] deals with MCF7. Put plainly: Anticancer activity against human MCF7 cells assessed as cell growth inhibition incubated for 24 hrs by ELISA assay. As to conditions: MCF7, 24 h. The format is functional, cell-based.
Experiment [2] deals with MCF7. Put plainly: Potency index, ratio of Tamoxifen IC50 to test compound IC50 for cytotoxicity against human MCF7 cells by MTT assay. The format is functional. For orientation: Tetrazolium assays rely on reduction of a dye to a coloured formazan, in cell work by metabolically active cells.
For the next experiment, the system named is MDA-MB-231. Put plainly: Potency index, ratio of Tamoxifen IC50 to test compound IC50 for cytotoxicity against human MDA-MB-231 cells by MTT assay. Type of experiment: functional.
A further experiment concerns Aspergillus niger. The experiment is described as follows: Antifungal activity against Aspergillus niger assessed as […] growth inhibition. Type of experiment: functional.
Experiment [3] concerns Escherichia coli. Put plainly: Antibacterial activity against Escherichia coli assessed as bacterial growth inhibition. The format is functional.
Experiment [4] has as its system Staphylococcus epidermidis. Put plainly: Antibacterial activity against Staphylococcus epidermidis assessed as bacterial growth inhibition. The format is functional.
The subject of a further experiment is Candida albicans. The experiment is described as follows: Antifungal activity against Candida albicans assessed as […] growth inhibition. The format is functional.
The test system of experiment [5] is Pseudomonas aeruginosa. The experiment is described as follows: Antibacterial activity against Pseudomonas aeruginosa assessed as bacterial growth inhibition. Type of experiment: functional.
Experiment [6] has as its system Bacillus subtilis. The experiment is described as follows: Antibacterial activity against Bacillus subtilis assessed as bacterial growth inhibition. Type of experiment: functional.
The next experiment has as its system HeLa. The experiment is described as follows: Anticancer activity against human HeLa cells assessed as cell growth inhibition incubated for 48 hrs by SRB assay. Type of experiment: functional, cell-based. For orientation: In SRB staining, fixed cells bind dye roughly in proportion to their protein.
The next experiment has as its system MIA PaCa-2. Put plainly: Anticancer activity against human MIA PaCa-2 cells assessed as cell growth inhibition incubated for 48 hrs by SRB assay. Type of experiment: functional, cell-based. To be noted: MIA PaCa-2, 48 h.
In the next experiment the test system is Plasmodium falciparum. The experiment is described as follows: Antimalarial activity against Plasmodium falciparum 3D7 strain by MSF assay. Type of experiment: functional, organism-based.
A further experiment has as its system HT-29. Put plainly: Anticancer activity against human HT-29 cells assessed as cell growth inhibition incubated for 48 hrs by SRB assay. Type of experiment: functional, cell-based. To be noted: HT-29, 48 h.
Experiment [7] has as its system MCF7. Put plainly: Anticancer activity against human MCF7 cells assessed as cell growth inhibition incubated for 48 hrs by SRB assay. Type of experiment: functional, cell-based. As to conditions: MCF7, 48 h.
The subject of a further experiment is A549. Put plainly: Anticancer activity against human A549 cells assessed as cell growth inhibition incubated for 48 hrs by SRB assay. The format is functional, cell-based. To be noted: A549, 48 h.
The next experiment concerns HCT-116. The experiment is described as follows: Anticancer activity against human HCT-116 cells assessed as cell growth inhibition incubated for 48 hrs by SRB assay. The format is functional, cell-based. To be noted: HCT-116, 48 h.
For experiment [8], the system named is MCF7. Put plainly: Anticancer activity against human MCF7 cells assessed as cell growth inhibition incubated for 48 hrs by MTT assay. The format is functional, cell-based. As to conditions: MCF7, 48 h.
Experiment [9] deals with Mycobacterium tuberculosis. The experiment is described as follows: Antibacterial activity against Mycobacterium tuberculosis H37Rv ATCC 27294 strain assessed as bacterial growth inhibition by MABA Assay. The format is functional.
For the next experiment, the system named is DU-145. Put plainly: Anticancer activity against human DU-145 cells assessed as cell growth inhibition by MTT assay. The format is functional, cell-based.
Experiment [10] concerns Staphylococcus aureus. The experiment is described as follows: Antibacterial activity against Staphylococcus aureus ATCC 6538 assessed as bacterial growth inhibition by agar well diffusion assay. The format is functional. (A growth-free zone around the sample is the usual read-out of agar diffusion tests.)
The next experiment deals with Listeria. The experiment is described as follows: Antibacterial activity against Listeria assessed as bacterial growth inhibition by agar well diffusion assay. Type of experiment: functional.
Experiment [11] deals with Escherichia coli. Put plainly: Antibacterial activity against Escherichia coli ATCC 11229 assessed as bacterial growth inhibition by agar well diffusion assay. Type of experiment: functional.
The test system of experiment [12] is MCF7. The experiment is described as follows: Anticancer activity against human MCF7 cells assessed as cell growth inhibition incubated for 24 hrs by MTT assay. To be noted: MCF7, 24 h. Type of experiment: functional, cell-based.
In experiment [13] the test system is Pseudomonas aeruginosa. Put plainly: Antibacterial activity against Pseudomonas aeruginosa assessed as bacterial growth inhibition incubated for 12 hrs by well plate assay. Type of experiment: functional.
Experiment [14] deals with Staphylococcus epidermidis. Put plainly: Antibacterial activity against Staphylococcus epidermidis assessed as bacterial growth inhibition incubated for 12 hrs by well plate assay. Type of experiment: functional.
Another experiment has as its system Klebsiella pneumoniae. Put plainly: Antibacterial activity against Klebsiella pneumoniae assessed as bacterial growth inhibition incubated for 12 hrs by well plate assay. The format is functional.
The test system of experiment [15] is Staphylococcus aureus. The experiment is described as follows: Antibacterial activity against Staphylococcus aureus assessed as bacterial growth inhibition incubated for 12 hrs by well plate assay. The format is functional.
Experiment [16] deals with Escherichia coli. Put plainly: Antibacterial activity against Escherichia coli assessed as bacterial growth inhibition incubated for 24 hrs by agar well diffusion assay. Type of experiment: functional.
Experiment [17] relates to Staphylococcus aureus. Put plainly: Antibacterial activity against Staphylococcus aureus assessed as bacterial growth inhibition incubated for 24 hrs by agar well diffusion assay. Type of experiment: functional.
For experiment [18], the system named is Bacillus subtilis. The experiment is described as follows: Antibacterial activity against Bacillus subtilis assessed as bacterial growth inhibition incubated for 24 hrs by agar well diffusion assay. The format is functional.
The test system of experiment [19] is Mycobacterium tuberculosis. The experiment is described as follows: Antibacterial activity against Mycobacterium tuberculosis H37Rv strain assessed as bacterial growth inhibition incubated for 7 days by Resazurin Microtiter Assay. Type of experiment: functional. As to conditions: 168 h, time 7 day.
Experiment [20] addresses Enoyl-[acyl-carrier-protein] reductase [NADH] (Mycobacterium tuberculosis) (UniProt P9WGR1). Put plainly: Inhibition of Mycobacterium tuberculosis InhA at 50 microM relative to control.
Where [21] appears, read: Escherichia coli, read-out: MIC.
The mark [22] stands for this setting: Pseudomonas aeruginosa, read-out: MIC.

Enoyl-[acyl-carrier-protein] reductase [NADH] (Mycobacterium tuberculosis), sequence (P9WGR1 whole entry): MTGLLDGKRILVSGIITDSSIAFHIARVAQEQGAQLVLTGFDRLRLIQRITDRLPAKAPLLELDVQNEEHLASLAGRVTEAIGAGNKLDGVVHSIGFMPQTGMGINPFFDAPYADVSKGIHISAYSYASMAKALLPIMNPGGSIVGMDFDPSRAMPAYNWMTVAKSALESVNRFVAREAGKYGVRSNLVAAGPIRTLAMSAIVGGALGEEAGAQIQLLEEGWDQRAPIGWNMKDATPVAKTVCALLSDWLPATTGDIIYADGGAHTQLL

Usually IC50 stands for the midpoint of a concentration-inhibition curve. `COc1cc2ncnc(Nc3ccc(Cn4cc(-c5ccccc5)nn4)cc3)c2cc1OC`: in the experiment with MCF7 [1], the half-maximal inhibitory concentration (IC50) worked out at 20.7 µM.
Regarding `Cc1ncc([N+](=O)[O-])n1Cc1cn(CCCCCN2C(=O)C(=O)c3cc(Cl)ccc32)nn1`, the “Ratio IC50” value with MCF7 [2] came out at 2; with MDA-MB-231, 5.
As to `O=C(Cn1cc(-c2cccc(F)c2)nn1)Nc1ccc(F)cc1`, the MIC (with Aspergillus niger; in the experiment on Escherichia coli [3]; in [4]; with Candida albicans; with Pseudomonas aeruginosa [5]; with Bacillus subtilis [6]) was 0.0199 umol/cm3 in each case.
Turning to `COc1ccc2cccc(-c3cn(CCCOC(=O)C4=C(Cl)c5cc(C)c(C)cc5CCC4)nn3)c2c1`, the half-inhibitory concentration (IC50) in the experiment with HeLa was 1.61 µM; with MIA PaCa-2, less than 0.01 µM.
`[N-]=[N+]=NCC(=O)NCCNc1ccnc2cc(Cl)ccc12`: half-maximal inhibition in the experiment on Plasmodium falciparum (IC50) required 0.0387 µM.
On to `Cc1ccc(-c2nn(-c3ccccc3)cc2/C=C/C(=O)OCc2cn(-c3ccc([N+](=O)[O-])cc3)nn2)cc1`, for which the IC50 in the experiment on HT-29 turned out to be 4.49 µM; in the experiment on MCF7 [7], 1.76 µM; with A549, 1.96 µM; in the experiment on HCT-116, 3.59 µM.
As for `Cc1cc(O)c(C(=O)/C=C/c2ccc(OCc3cn(Cc4ccc(Br)cc4)nn3)cc2)c(=O)o1`, the MIC amounted to 3 µM (≈ 1.57 µg/mL) in the experiment on Aspergillus niger (Aspergillus niger, read-out: MIC); 3 µM with Escherichia coli [3] (setting [21]); 3 µM (≈ 1.57 µg/mL) in [4] (Staphylococcus epidermidis, read-out: MIC); 3 µM (≈ 1.57 µg/mL) in the experiment on Candida albicans (Candida albicans, read-out: MIC); 3 µM with Pseudomonas aeruginosa [5] (setting [22]); 3 µM (≈ 1.57 µg/mL) with Bacillus subtilis [6] (Bacillus subtilis, read-out: MIC).
For `N#CC1=C(N)Oc2cc3c(cc2C12C(=O)N(Cc1cn(Cc4ccc([N+](=O)[O-])cc4)nn1)c1ccccc12)[nH]c1ccccc13` (stereo not drawn), the IC50 in the experiment with MCF7 [8] amounted to 2.13 µM.
Consider `O=C1C(=O)N(CCn2cc(COCCOc3ccc(/C(=C(/CCCl)c4ccccc4)c4ccccc4)cc3)nn2)c2c(Br)cc(Br)cc21`, for which the “Ratio IC50” value with MCF7 [2] was 30.
For the compound `NC(=O)N/N=C/c1ccccc1OCc1cn(-c2ccc(Br)cc2)nn1`, in the experiment on Pseudomonas aeruginosa [5] (setting [22]), the MIC stood at 60.2 µM.
For `COc1ccc2nc(Cl)c(C(=O)NCc3cn(CC(=O)c4ccc(F)cc4)nn3)cc2c1`, in [9], the MIC amounted to 1.6 µg/mL (≈ 3.53 µM).
Consider `COc1cc([C@H]2c3cc4c(cc3[C@H](OCc3cn([C@@H]5O[C@H](COC(C)=O)[C@@H](OC(C)=O)[C@H](OC(C)=O)[C@H]5OC(C)=O)nn3)[C@@H]3COC(=O)[C@@H]23)OCO4)cc(OC)c1OC`, for which the IC50 in the experiment with DU-145 amounted to 1.02 µM.
As to `CC(C)c1ccc(-c2cc(-c3ccc(Cl)cc3)nc(OCc3cn(CC(=O)O)nn3)c2C#N)cc1`, the MIC in the experiment on Staphylococcus aureus [10] was found to be 19.2 µg/mL (≈ 39.3 µM); in the experiment with Listeria, 9.6 µg/mL (≈ 19.7 µM); in the experiment with Escherichia coli [11], 9.6 µg/mL (≈ 19.7 µM).
As to `COc1ccc2nc(Cl)c(C(=O)NCc3cn(C(=O)c4ccc(F)cc4)nn3)cc2c1`, the MIC in the experiment with Escherichia coli [3] (setting [21]) and in the experiment with Pseudomonas aeruginosa [5] (setting [22]) was 6.25 µg/mL throughout.
With `CCOC(=O)[C@H]1Cc2c([nH]c3ccccc23)CN1Cc1cn(CCCN2C(=O)C(=O)c3ccccc32)nn1`, the IC50 in the experiment on MCF7 [12] was 37.4 µM.
As for `COc1ccccc1/N=C/c1c(OCc2cn(CCC[Si]34OCCN(CCO3)CCO4)nn2)ccc2ccccc12`, the MIC in the experiment with Pseudomonas aeruginosa [13] turned out to be 106 µg/mL (≈ 185 µM); in [14], 26.5 µg/mL (≈ 46.2 µM); in the experiment with Klebsiella pneumoniae, 106 µg/mL (≈ 185 µM); in the experiment on Staphylococcus aureus [15] it was 26.5 µg/mL (≈ 46.2 µM).
With `O=C(Cn1cc(-c2ccccc2)nn1)Nc1ccc(F)cc1`, the MIC (in the experiment with Aspergillus niger; in the experiment on Escherichia coli [3]; in experiment [4]; in the experiment on Candida albicans; in the experiment on Pseudomonas aeruginosa [5]; in the experiment on Bacillus subtilis [6]) was 0.201 umol/cm3 each time.
Regarding `Cc1cc(=O)oc2cc(OCc3cn(CCCCCCCCn4cc(COc5cc6oc(=O)cc(C)c6cc5Cl)nn4)nn3)c(Cl)cc12`, the results for the “inhibition zone (IZ)” value with Escherichia coli [16], in the experiment on Staphylococcus aureus [17] and in the experiment on Bacillus subtilis [18] were 14 mm, 16 mm and 19 mm, respectively. The MIC in [19] was determined as 1.56 µg/mL (≈ 2.25 µM).
As a reminder, the inhibition is the share of the control response that was lost under treatment. Low readings indicate a weak effect, high ones a strong effect. In experiment [20], `COc1cc(-n2cc(CS(=O)(=O)C3c4ccccc4-c4ccccc43)nn2)cc(OC)c1OC` registered an inhibition of 73%.
